Measured values taken from patent US12083124B2 (Incyte Corporation, priority 2019, dated 2024).
Read-outs that look alike come from different tables or passages of the source.

What was measured:
[1] = target: wild-type un-phosphorylated FGFR4 (Homo sapiens, UniProt P22455); assay: FGFR Enzymatic Assay (FRET peptide phosphorylation), FGFR4
Procedure: The inhibitor potency of the exemplified compounds was determined in an enzyme discontinuous assay that measures peptide phosphorylation using FRET measurements to detect product formation. Inhibitors were serially diluted in DMSO and a volume of 0.2 μL was transferred to the wells of a 384-well plate. […] Appropriate controls (enzyme blank and enzyme with no inhibitor) were included on the plate. […] The 10 μL/well reaction concentration of the peptide substrate was 500 nM whereas the ATP concentration was maintained near or below the ATP Km. The ATP Km values were pre-determined in a separate series of experiments. The reaction plate was incubated at 25° C. for 1 hr and the reactions were ended with the addition of 5 μL/well of quench solution (50 mM Tris, 150 mM NaCl, 0.5 mg/mL BSA, pH 7.8; 45 mM EDTA, 600 nM staurosporin, with Perkin Elmer Lance Reagents at 3.75 nM Eu-antibody PY20 and 180 nM APC-Streptavidin). The plate was allowed to equilibrate for ˜10 minutes at ambient temperature before scanning on a PheraStar plate reader (BMG Labtech) instrument.
Either GraphPad prism or XLfit was used to analyze the data. The IC50 values were derived by fitting the data to a four parameter logistic equation producing a sigmoidal dose-response curve with a variable Hill coefficient. Prism equation: Y=Bottom+(Top-Bottom)/(1+10^((Log IC50-X)*Hill slope)); XLfit equation: Y=(A+((B−A)/(1+((X/C)^D)))) where X is the logarithm of inhibitor concentration and Y is the response.
GraphPad prism3 was used to analyze the data. The IC50 values were derived by fitting the data to the equation for a sigmoidal dose-response with a variable slope. Y=Bottom+(Top-Bottom)/(1+10^((Log IC50-X)*Hill Slope)) where X is the logarithm of concentration and Y is the response.
The data in Table 1 was measured in wild-type un-phosphorylated FGFR1, FGFR2, FGFR3, and FGFR4 proteins.

[2] = target: wild-type un-phosphorylated FGFR2 (Homo sapiens, UniProt P21802); assay: FGFR Enzymatic Assay (FRET peptide phosphorylation), FGFR2
[3] = target: wild-type un-phosphorylated FGFR1 (Homo sapiens, UniProt P11362); assay: FGFR Enzymatic Assay (FRET peptide phosphorylation), FGFR1; conditions: pre-incubated for 4 hours
wild-type un-phosphorylated FGFR1, sequence (P11362 22-822): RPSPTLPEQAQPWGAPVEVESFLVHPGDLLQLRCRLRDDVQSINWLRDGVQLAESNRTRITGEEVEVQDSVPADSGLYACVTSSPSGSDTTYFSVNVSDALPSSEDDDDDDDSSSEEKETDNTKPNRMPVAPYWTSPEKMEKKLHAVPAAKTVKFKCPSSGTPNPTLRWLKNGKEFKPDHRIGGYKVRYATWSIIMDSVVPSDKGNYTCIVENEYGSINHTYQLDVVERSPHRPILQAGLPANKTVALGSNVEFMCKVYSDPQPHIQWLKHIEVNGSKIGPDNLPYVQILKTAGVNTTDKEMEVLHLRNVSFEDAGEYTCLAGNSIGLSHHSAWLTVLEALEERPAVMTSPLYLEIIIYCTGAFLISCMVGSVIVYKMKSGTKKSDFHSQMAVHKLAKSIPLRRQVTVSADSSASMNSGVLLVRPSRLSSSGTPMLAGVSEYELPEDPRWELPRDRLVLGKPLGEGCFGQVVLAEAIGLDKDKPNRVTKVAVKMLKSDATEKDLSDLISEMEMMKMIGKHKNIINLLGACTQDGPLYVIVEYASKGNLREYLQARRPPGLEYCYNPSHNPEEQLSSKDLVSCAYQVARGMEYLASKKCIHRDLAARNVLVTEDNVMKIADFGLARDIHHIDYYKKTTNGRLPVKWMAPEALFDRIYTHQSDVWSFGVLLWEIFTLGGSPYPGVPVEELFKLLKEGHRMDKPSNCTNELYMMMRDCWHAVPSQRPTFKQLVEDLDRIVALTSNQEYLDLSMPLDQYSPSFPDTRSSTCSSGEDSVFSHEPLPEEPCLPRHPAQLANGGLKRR

[4] = target: wild-type un-phosphorylated FGFR3 (Homo sapiens, UniProt P22607); assay: FGFR Enzymatic Assay (FRET peptide phosphorylation), FGFR3
wild-type un-phosphorylated FGFR3, sequence (P22607 23-806): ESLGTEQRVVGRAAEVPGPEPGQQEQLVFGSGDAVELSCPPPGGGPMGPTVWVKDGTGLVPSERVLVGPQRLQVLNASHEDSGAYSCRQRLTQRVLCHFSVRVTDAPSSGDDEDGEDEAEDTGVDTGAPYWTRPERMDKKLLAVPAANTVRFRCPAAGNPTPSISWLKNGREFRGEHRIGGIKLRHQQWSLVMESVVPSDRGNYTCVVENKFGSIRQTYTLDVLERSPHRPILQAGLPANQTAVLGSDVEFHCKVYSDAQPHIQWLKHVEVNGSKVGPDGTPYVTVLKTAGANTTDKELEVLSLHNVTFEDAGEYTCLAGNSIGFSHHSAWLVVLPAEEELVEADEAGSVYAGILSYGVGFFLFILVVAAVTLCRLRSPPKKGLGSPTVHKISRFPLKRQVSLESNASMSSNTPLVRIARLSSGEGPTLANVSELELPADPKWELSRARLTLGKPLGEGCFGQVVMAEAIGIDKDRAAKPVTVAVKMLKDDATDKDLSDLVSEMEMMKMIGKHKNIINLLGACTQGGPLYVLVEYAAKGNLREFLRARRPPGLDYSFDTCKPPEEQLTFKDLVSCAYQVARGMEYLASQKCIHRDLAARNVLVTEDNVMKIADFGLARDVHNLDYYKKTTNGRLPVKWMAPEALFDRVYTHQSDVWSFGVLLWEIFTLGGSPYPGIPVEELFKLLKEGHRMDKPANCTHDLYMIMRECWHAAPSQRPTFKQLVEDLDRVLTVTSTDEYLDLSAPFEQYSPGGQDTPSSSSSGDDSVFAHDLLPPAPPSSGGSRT

[5] = read-out: FGFR1, wild-type un-phosphorylated FGFR1
[6] = read-out: FGFR4, wild-type un-phosphorylated FGFR4, pre-incubated for 4 hours
[7] = FGFR1, wild-type un-phosphorylated FGFR1

wild-type un-phosphorylated FGFR4, sequence (P22455 22-802): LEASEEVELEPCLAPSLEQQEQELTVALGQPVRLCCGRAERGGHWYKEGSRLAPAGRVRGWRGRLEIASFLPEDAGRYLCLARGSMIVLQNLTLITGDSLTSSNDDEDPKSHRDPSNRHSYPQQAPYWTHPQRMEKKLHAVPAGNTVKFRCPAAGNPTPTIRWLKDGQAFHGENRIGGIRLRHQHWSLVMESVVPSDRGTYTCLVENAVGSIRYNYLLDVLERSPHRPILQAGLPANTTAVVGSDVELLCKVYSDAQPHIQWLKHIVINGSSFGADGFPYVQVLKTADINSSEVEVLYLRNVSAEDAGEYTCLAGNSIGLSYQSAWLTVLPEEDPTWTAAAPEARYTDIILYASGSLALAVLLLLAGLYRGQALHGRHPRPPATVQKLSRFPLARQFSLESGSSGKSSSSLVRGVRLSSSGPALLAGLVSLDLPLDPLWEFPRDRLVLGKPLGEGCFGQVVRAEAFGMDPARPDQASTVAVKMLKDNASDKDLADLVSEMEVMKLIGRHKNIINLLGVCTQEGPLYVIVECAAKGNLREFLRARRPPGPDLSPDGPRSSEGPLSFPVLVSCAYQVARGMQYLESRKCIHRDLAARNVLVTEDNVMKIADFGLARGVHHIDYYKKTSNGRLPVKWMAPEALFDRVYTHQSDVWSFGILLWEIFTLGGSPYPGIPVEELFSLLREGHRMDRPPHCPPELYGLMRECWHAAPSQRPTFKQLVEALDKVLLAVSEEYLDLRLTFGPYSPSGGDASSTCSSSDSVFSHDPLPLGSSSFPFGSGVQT
wild-type un-phosphorylated FGFR2, sequence (P21802 22-821): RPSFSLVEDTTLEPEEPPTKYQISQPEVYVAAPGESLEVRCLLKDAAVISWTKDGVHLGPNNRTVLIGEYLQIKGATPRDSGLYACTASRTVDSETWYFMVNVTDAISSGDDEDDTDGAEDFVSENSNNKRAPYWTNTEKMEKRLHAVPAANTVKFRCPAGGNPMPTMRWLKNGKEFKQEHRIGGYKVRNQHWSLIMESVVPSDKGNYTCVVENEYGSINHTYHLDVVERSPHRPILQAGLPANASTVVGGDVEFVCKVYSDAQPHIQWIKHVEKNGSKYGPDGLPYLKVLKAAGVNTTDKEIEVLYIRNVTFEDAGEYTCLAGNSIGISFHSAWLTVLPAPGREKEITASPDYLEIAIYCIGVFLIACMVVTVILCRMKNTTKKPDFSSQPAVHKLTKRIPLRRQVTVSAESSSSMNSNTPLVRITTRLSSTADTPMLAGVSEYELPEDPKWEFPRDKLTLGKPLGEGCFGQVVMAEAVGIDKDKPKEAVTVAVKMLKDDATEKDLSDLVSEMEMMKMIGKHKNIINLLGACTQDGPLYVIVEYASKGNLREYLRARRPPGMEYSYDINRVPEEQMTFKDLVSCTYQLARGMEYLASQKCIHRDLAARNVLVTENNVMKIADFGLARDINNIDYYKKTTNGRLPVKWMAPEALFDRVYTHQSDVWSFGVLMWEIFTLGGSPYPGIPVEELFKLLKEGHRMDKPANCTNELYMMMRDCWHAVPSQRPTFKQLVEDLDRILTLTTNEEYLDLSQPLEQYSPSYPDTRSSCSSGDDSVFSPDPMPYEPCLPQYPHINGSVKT

Row | SMILES | IC50 [1] [nM] | IC50 [2] [nM] | IC50 [3, 5] [nM] | IC50 [4] [nM] | IC50 [1, 6] [nM] | IC50 [3, 7] [nM]
1 | COc1cc2[nH]nc(-c3cnn(C4CN(C(=O)C(C)(C)N(C)C)C4)c3)c2nc1-c1cccc2c1CCC2 [Example 148, 1-(3-(4-(5-(2,3-Dihydro-1H-inden-4-yl)-6-methoxy-1H-pyrazolo[4,3-b]pyridin-3-yl)-1H-pyrazol-1-yl)azetidin-1-yl)-2-(dimethylamino)-2-methylpropan-1-one] | 40 to 100 | < 6 | 6 to 40 | < 6 |  | 
2 | COc1cc2[nH]nc(-c3cnn(C4CN(C(=O)C5(C#N)CC5)C4)c3)c2nc1-c1cccc2c1CCC2 [Example 149, 1-(3-(4-(5-(2,3-Dihydro-1H-inden-4-yl)-6-methoxy-1H-pyrazolo[4,3-b]pyridin-3-yl)-1H-pyrazol-1-yl)azetidine-1-carbonyl)cyclopropane-1-carbonitrile] |  | < 6 | 6 to 40 | < 6 | 6 to 40 | 
3 | COc1cc2[nH]nc(-c3cnn(C4CN(S(=O)(=O)CCO)C4)c3)c2nc1-c1cccc2c1CCC2 [Example 150, 2-((3-(4-(5-(2,3-Dihydro-1H-inden-4-yl)-6-methoxy-1H-pyrazolo[4,3-b]pyridin-3-yl)-1H-pyrazol-1-yl)azetidin-1-yl)sulfonyl)ethan-1-ol] | 40 to 100 | < 6 |  | < 6 |  | 40 to 100
4 | COc1cc2[nH]nc(-c3cnn(C4CN(S(=O)(=O)CCN(C)C)C4)c3)c2nc1-c1cccc2c1CCC2 [Example 151, 2-((3-(4-(5-(2,3-Dihydro-1H-inden-4-yl)-6-methoxy-1H-pyrazolo[4,3-b]pyridin-3-yl)-1H-pyrazol-1-yl)azetidin-1-yl)sulfonyl)-N,N-dimethylethan-1-amine] | 40 to 100 | < 6 | 6 to 40 | < 6 |  | 
5 | COCCOC(=O)N1CC(n2cc(-c3n[nH]c4cc(OC)c(-c5cccc6c5CCC6)nc34)cn2)C1 [Example 152, 2-Methoxyethyl 3-(4-(5-(2,3-dihydro-1H-inden-4-yl)-6-methoxy-1H-pyrazolo[4,3-b]pyridin-3-yl)-1H-pyrazol-1-yl)azetidine-1-carboxylate] | 40 to 100 | < 6 |  | < 6 |  | 40 to 100
6 | COc1cc2[nH]nc(-c3cnn(C4CN(C(=O)[C@H]5C[C@@H](OC)C5)C4)c3)c2nc1-c1cccc2c1CCC2 [Example 153, (3-(4-(5-(2,3-Dihydro-1H-inden-4-yl)-6-methoxy-1H-pyrazolo[4,3-b]pyridin-3-yl)-1H-pyrazol-1-yl)azetidin-1-yl)((1s,3s)-3-methoxycyclobutyl)methanone] | 40 to 100 | < 6 | 6 to 40 | < 6 |  | 
7 | COc1cc2[nH]nc(-c3ccc(C45CC4CN(CCO)C5)cc3)c2nc1-c1cccc2c1CCC2 (stereo not shown) [Example 158, 2-(1-(4-(5-(2,3-Dihydro-1H-inden-4-yl)-6-methoxy-1H-pyrazolo[4,3-b]pyridin-3-yl)phenyl)-3-azabicyclo[3.1.0]hexan-3-yl)ethan-1-ol] | 40 to 100 | < 6 | 6 to 40 | < 6 |  | 
8 | COc1cc2[nH]nc(-c3ccc([C@@]45C[C@@H]4CN(CCO)C5)cc3)c2nc1-c1cccc2c1CCC2C#N (stereo partly drawn) [Example 159, 4-(3-(4-((1R,5S)-3-(2-Hydroxyethyl)-3-azabicyclo[3.1.0]hexan-1-yl)phenyl)-6-methoxy-1H-pyrazolo[4,3-b]pyridin-5-yl)-2,3-dihydro-1H-indene-1-carbonitrile] |  | < 6 | 6 to 40 | < 6 | 6 to 40 | 
9 | COc1cc2[nH]nc(-c3ccc(C(C)N4CCOCC4)nc3)c2nc1-c1cccc2c1CCC2 (stereo not shown) [Example 162, 4-(1-(5-(5-(2,3-Dihydro-1H-inden-4-yl)-6-methoxy-1H-pyrazolo[4,3-b]pyridin-3-yl)pyridin-2-yl)ethyl)morpholine] | > 100 | < 6 |  | < 6 |  | 40 to 100
10 | COc1cc2[nH]nc(-c3ccc(CN4CCn5ncnc5C4)nc3)c2nc1-c1cccc2c1CCC2 [Example 163, 7-((5-(5-(2,3-Dihydro-1H-inden-4-yl)-6-methoxy-1H-pyrazolo[4,3-b]pyridin-3-yl)pyridin-2-yl)methyl)-5,6,7,8-tetrahydro-[1,2,4]triazolo[1,5-a]pyrazine] | 40 to 100 | < 6 |  | < 6 |  | 40 to 100
11 | COc1cc2[nH]nc(-c3ccc(C4(C#N)CCN(CCO)CC4)nc3)c2nc1-c1cccc2c1CCC2 [Example 164, 4-(5-(5-(2,3-Dihydro-1H-inden-4-yl)-6-methoxy-1H-pyrazolo[4,3-b]pyridin-3-yl)pyridin-2-yl)-1-(2-hydroxyethyl)piperidine-4-carbonitrile] | 40 to 100 | < 6 |  | < 6 |  | 40 to 100
12 | COc1cc2[nH]nc(-c3ccc(C4(C#N)CCN(C(=O)CO)CC4)nc3)c2nc1-c1cccc2c1CCC2 [Example 165, 4-(5-(5-(2,3-Dihydro-1H-inden-4-yl)-6-methoxy-1H-pyrazolo[4,3-b]pyridin-3-yl)pyridin-2-yl)-1-(2-hydroxyacetyl)piperidine-4-carbonitrile] |  | < 6 | 6 to 40 | < 6 | 6 to 40 | 
13 | COCCN1CCN(c2ccc(-c3n[nH]c4cc(OC)c(-c5cccc(CC#N)c5C)nc34)cn2)CC1 [Example 166, 2-(3-(6-Methoxy-3-(6-(4-(2-methoxyethyl)piperazin-1-yl)pyridin-3-yl)-1H-pyrazolo[4,3-b]pyridin-5-yl)-2-methylphenyl)acetonitrile] | 40 to 100 | < 6 |  | < 6 |  | 40 to 100
14 | [2H]C1(n2cc(-c3n[nH]c4cc(OC)c(-c5cccc6c5CCC6C#N)nc34)cn2)CCN(C(=O)C2CCOCC2)CC1 (stereo not shown) [Example 167, 4-(6-Methoxy-3-(1-(1-(tetrahydro-2H-pyran-4-carbonyl)piperidin-4-yl-4-d)-1H-pyrazol-4-yl)-1H-pyrazolo[4,3-b]pyridin-5-yl)-2,3-dihydro-1H-indene-1-carbonitrile] | 40 to 100 | < 6 |  | < 6 |  | 40 to 100
15 | COc1cc2[nH]nc(-c3cnn([C@H]4CCN(C(=O)[C@@H]5CCCO5)C4)c3)c2nc1-c1cccc2c1CCC2C#N (stereo partly drawn) [Example 169, 4-(6-Methoxy-3-(1-((S)-1-((S)-tetrahydrofuran-2-carbonyl)pyrrolidin-3-yl)-1H-pyrazol-4-yl)-1H-pyrazolo[4,3-b]pyridin-5-yl)-2,3-dihydro-1H-indene-1-carbonitrile] | 40 to 100 | < 6 | 6 to 40 | < 6 |  | 

The next lines start with the values.

Row | IC50 [1] [nM] | IC50 [2] [nM] | IC50 [3, 5] [nM] | IC50 [4] [nM] | IC50 [1, 6] [nM] | IC50 [3, 7] [nM] | SMILES
16 | > 100 | < 6 |  | < 6 |  | 40 to 100 | COc1cc2[nH]nc(-c3ccc(C4CCC(N(C)S(C)(=O)=O)C4)nc3)c2nc1-c1cccc2c1CCC2 (stereo not shown) [Example 154, N-(3-(5-(5-(2,3-Dihydro-1H-inden-4-yl)-6-methoxy-1H-pyrazolo[4,3-b]pyridin-3-yl)pyridin-2-yl)cyclopentyl)-N-methylmethanesulfonamide]
17 |  | < 6 | 6 to 40 | < 6 | 6 to 40 |  | COc1cc2[nH]nc(-c3ccc(C4CCC(NC(=O)[C@H](C)O)C4)nc3)c2nc1-c1cccc2c1CCC2 (stereo partly drawn) [Example 156, (2S)-N-(3-(5-(5-(2,3-Dihydro-1H-inden-4-yl)-6-methoxy-1H-pyrazolo[4,3-b]pyridin-3-yl)pyridin-2-yl)cyclopentyl)-2-hydroxypropanamid]
18 | 40 to 100 | < 6 |  | < 6 |  | 40 to 100 | COc1cc2[nH]nc(-c3ccc(C4CCC(NC(=O)CO)C4)nc3)c2nc1-c1cccc2c1CCC2 (stereo not shown) [Example 157, N-(3-(5-(5-(2,3-Dihydro-1H-inden-4-yl)-6-methoxy-1H-pyrazolo[4,3-b]pyridin-3-yl)pyridin-2-yl)cyclopentyl)-2-hydroxyacetamide]
19 | 40 to 100 | < 6 |  | < 6 |  | 40 to 100 | COc1cc2[nH]nc(-c3ccc(CN4CCC(O)CC4)nc3)c2nc1-c1cccc2c1CCC2 [Example 160, 1-((5-(5-(2,3-Dihydro-1H-inden-4-yl)-6-methoxy-1H-pyrazolo[4,3-b]pyridin-3-yl)pyridin-2-yl)methyl)piperidin-4-ol]
20 | 40 to 100 | < 6 |  | < 6 |  | 40 to 100 | COc1cc2[nH]nc(-c3ccc(CN4CC5CC4CO5)nc3)c2nc1-c1cccc2c1CCC2 (stereo not shown) [Example 161, 5-((5-(5-(2,3-Dihydro-1H-inden-4-yl)-6-methoxy-1H-pyrazolo[4,3-b]pyridin-3-yl)pyridin-2-yl)methyl)-2-oxa-5-azabicyclo[2.2.1]heptane]
21 |  | < 6 | 6 to 40 | < 6 | 6 to 40 |  | COc1cc2[nH]nc(-c3ccc(N4CCN5C[C@H](O)C[C@H]5C4)nc3)c2nc1-c1cccc2c1CCC2 [Example 170, (7R,8aS)-2-(5-(5-(2,3-Dihydro-1H-inden-4-yl)-6-methoxy-1H-pyrazolo[4,3-b]pyridin-3-yl)pyridin-2-yl)octahydropyrrolo[1,2-a]pyrazin-7-ol]
22 |  | < 6 | 6 to 40 | < 6 | 6 to 40 |  | COc1cc2[nH]nc(-c3ccc(N4CC(N(C)C(=O)CO)C4)nc3)c2nc1-c1cccc2c1CCC2 [Example 171, N-(1-(5-(5-(2,3-Dihydro-1H-inden-4-yl)-6-methoxy-1H-pyrazolo[4,3-b]pyridin-3-yl)pyridin-2-yl)azetidin-3-yl)-2-hydroxy-N-methylacetamide]
